In US9775878B2, “Methods for treating bacterial infections using oritavancin and polymyxins” (The Medicines Company, priority 2013, dated 2017):
Read-outs that look alike come from different tables or passages of the source.

Experiments:
Assay type in all cases: cell-based
[1] = tested on: Acinetobacter baumannii strains; experiment: Broth macrodilution MICs under conditions used for synergy time-kill assays; settings: ATCC19609, strain ATCC 19609 (Non-MDR), agent alone, time-kill conditions, read-out: Broth macrodilution MICs
[2] = tested on: Acinetobacter baumannii strains; experiment: Broth microdilution MIC of colistin in absence and presence of 0.002% polysorbate 80; settings: for Colistin MIC −P80: absence of polysorbate 80; for Colistin MIC +P80: presence of 0.002% polysorbate-80
Protocol: Broth microdilution MIC testing (CLSI M07-A9) was performed on the Acinetobacter baumannii ([…]) and 10 AB strains, including 8 MDRAB (resistant to ≧3 of the following: beta-lactams, gentamicin, fluoroquinolones and tetracycline; obtained from Eurofins Medinet Chantilly, Va.). The requirement of 0.002% polysorbate 80 (P-80) for testing oritavancin also necessitated the testing of COL in the presence of P80. Checkerboard assays were used to determine activity of antimicrobial combinations; fractional inhibitory concentration indices (FICI) were used to define synergy, indifference or antagonism. Broth macrodilution MICs were determined following conditions used for synergy time-kill assays. Synergy time-kill studies were performed following CLSI guidelines.
(§1) Minimum inhibitory concentrations (MICs). Broth microdilution MICs were determined according to CLSI (CLSI document M7-A9, 2013) guidelines with the exception that COL MICs were also determined in the presence of 0.002% polysorbate 80 (P80) since P80 was to be present in the combination tests because of its requirement for testing oritavancin. Broth macrodilution MICs were determined following conditions used for synergy time-kill assays.

[3] = tested on: Acinetobacter baumannii strains; experiment: Broth macrodilution MICs under conditions used for synergy time-kill assays; settings: Acinetobacter baumannii, agent alone, time-kill conditions, read-out: Broth macrodilution MICs
Protocol: (§2) Broth microdilution MIC testing (CLSI M07-A9) was performed on the Acinetobacter baumannii (AB) reference strain ATCC 19606 (obtained from ATCC) and 10 AB strains, including 8 MDRAB (resistant to ≧3 of the following: beta-lactams, gentamicin, fluoroquinolones and tetracycline; obtained from Eurofins Medinet Chantilly, Va.). The requirement of 0.002% polysorbate 80 (P-80) for testing oritavancin also necessitated the testing of COL in the presence of P80. Checkerboard assays were used to determine activity of antimicrobial combinations; fractional inhibitory concentration indices (FICI) were used to define synergy, indifference or antagonism. Broth macrodilution MICs were determined following conditions used for synergy time-kill assays. Synergy time-kill studies were performed following CLSI guidelines.
as §1

[4] = tested on: Acinetobacter baumannii strains; experiment: Synergy time-kill assay; settings: concentration of the agent within the ORI+COL combination, ≧2 log CFU/mL decrease vs most active constituent at 24 h, 0.002% P80
Protocol: as §2
Time-kill assays followed CLSI guidelines (NCCLS, CLSI document M26-A2, 1999) with the exception that 96 deep-well plates were used. Exponential-phase bacteria were diluted to approximately 5×10^5 colony-forming units (CFU)/mL and exposed to ORI or COL alone, or in combination in CAMHB containing 0.002% P80. Bacteria were enumerated by serial dilution plating. To prevent drug carryover during serial dilution plating, aliquots of the drug-challenged culture were added to an equal volume of 25 mg/mL activated charcoal suspension. […] All experiments were repeated at least two times and a representative experiment is presented in the plots; data points are an average of duplicate CFU/mL determinations within an experiment.

CCC(C)CCCC(=O)N[C@H](CCN)C(=O)N[C@H](C(=O)N[C@@H](CCN)C(=O)N[C@H]1CCNC(=O)[C@H]([C@@H](C)O)NC(=O)[C@H](CCN)NC(=O)[C@H](CCN)NC(=O)[C@H](CC(C)C)NC(=O)[C@@H](CC(C)C)NC(=O)[C@H](CCN)NC1=O)[C@@H](C)O (stereo in doubt) [COL, Colistin]
> 16 µg/mL: MIC ([3]; strain 2691748 (Non-MDR))
8: Fold change in MIC (−P80/+P80) ([2]; strain 2691748 (Non-MDR)) | Fold change in MIC (−P80/+P80) ([2]; strain 2694227 (MDR))
0.06 µg/mL: Concentrations that yielded synergy in time-kill ([4]; strain 2694038 (MDR)) | Concentrations that yielded synergy in time-kill ([4]; strain ATCC 19609 (Non-MDR))
0.125 µg/mL: Colistin MIC +P80 ([2]; strain 2692406 (MDR)) | Colistin MIC +P80 ([2]; strain 2692650 (MDR)) | Colistin MIC +P80 ([2]; strain 2693922 (MDR)) | Colistin MIC +P80 ([2]; strain 2694227 (MDR))
16: Fold change in MIC (−P80/+P80) ([2]; strain 2692406 (MDR))
2 µg/mL: Colistin MIC −P80 ([2]; strain 2691818 (Non-MDR)) | Colistin MIC −P80 ([2]; strain 2692406 (MDR))
1 µg/mL: Colistin MIC +P80 ([2]; strain 2691818 (Non-MDR)) | Colistin MIC −P80 ([2]; strain 2691999 (MDR)) | Colistin MIC −P80 ([2]; strain 2692721 (MDR)) | Colistin MIC −P80 ([2]; strain 2694038 (MDR)) | Colistin MIC −P80 ([2]; strain 2694224 (MDR)) | Colistin MIC −P80 ([2]; strain 2694227 (MDR)) | Colistin MIC −P80 ([2]; strain ATCC 19609 (Non-MDR)) | MIC ([3]; strain 2691999 (MDR)) | Concentrations that yielded synergy in time-kill ([4]; strain 2691748 (Non-MDR))
4: Fold change in MIC (−P80/+P80) ([2]; strain 2691999 (MDR)) | Fold change in MIC (−P80/+P80) ([2]; strain 2692650 (MDR)) | Fold change in MIC (−P80/+P80) ([2]; strain 2692721 (MDR)) | Fold change in MIC (−P80/+P80) ([2]; strain 2693922 (MDR)) | Fold change in MIC (−P80/+P80) ([2]; strain 2694038 (MDR)) | Fold change in MIC (−P80/+P80) ([2]; strain 2694224 (MDR)) | Fold change in MIC (−P80/+P80) ([2]; strain ATCC 19609 (Non-MDR))
0.12 µg/mL: MIC ([3]; strain 2694038 (MDR)) | Concentrations that yielded synergy in time-kill ([4]; strain 2691818 (Non-MDR)) | Concentrations that yielded synergy in time-kill ([4]; strain 2691999 (MDR)) | Concentrations that yielded synergy in time-kill ([4]; strain 2692406 (MDR)) | Concentrations that yielded synergy in time-kill ([4]; strain 2692650 (MDR)) | Concentrations that yielded synergy in time-kill ([4]; strain 2692721 (MDR)) | Concentrations that yielded synergy in time-kill ([4]; strain 2693922 (MDR)) | Concentrations that yielded synergy in time-kill ([4]; strain 2694224 (MDR)) | Concentrations that yielded synergy in time-kill ([4]; strain 2694227 (MDR))
2: Fold change in MIC (−P80/+P80) ([2]; strain 2691818 (Non-MDR))
4 µg/mL: Colistin MIC −P80 ([2]; strain 2691748 (Non-MDR))
0.25 µg/mL: MIC [1] | Colistin MIC +P80 ([2]; strain 2691999 (MDR)) | Colistin MIC +P80 ([2]; strain 2692721 (MDR)) | Colistin MIC +P80 ([2]; strain 2694038 (MDR)) | Colistin MIC +P80 ([2]; strain 2694224 (MDR)) | Colistin MIC +P80 ([2]; strain ATCC 19609 (Non-MDR)) | MIC ([3]; strain 2691818 (Non-MDR)) | MIC ([3]; strain 2692406 (MDR)) | MIC ([3]; strain 2692650 (MDR))
0.5 µg/mL: Colistin MIC +P80 ([2]; strain 2691748 (Non-MDR)) | Colistin MIC −P80 ([2]; strain 2692650 (MDR)) | Colistin MIC −P80 ([2]; strain 2693922 (MDR)) | MIC ([3]; strain 2692721 (MDR)) | MIC ([3]; strain 2693922 (MDR)) | MIC ([3]; strain 2694224 (MDR)) | MIC ([3]; strain 2694227 (MDR))
